Assay results as given in patent US11028061B2, “Modulators of myocyte lipid accumulation and insulin resistance and methods of use thereof” (Sanford Burnham Prebys Medical Discovery Institute, priority 2015, dated 2021).

Experiments:
[1] = system: fatty acid transporter, CD36; experiment: CD36 gene expression; assay type: cell-based; conditions: data not shown
Description: (§1) Total RNA was isolated using RNeasy Mini Kit (Qiagen) according to the manufacturer's instructions. cDNA was synthesized using the Affinity Script cDNA Synthesis Kit (Stratagene) with 0.5 μg of total RNA. PCR reactions were performed in triplicate […] Roche LightCycler® 480 Instrument II) with specific primers for each gene.

[2] = system: primary human skeletal myotubes; experiment: Fatty acid oxidation (FAO) assay, 3H-palmitate; assay type: cell-based; conditions: 24 hours
Description: FAO rates were determined for primary human skeletal myotubes with or without SBI-477 using 125 μM [3H]-palmitic acid (Djouadi, et al., Mol Genet Metab. 2003; 78(2):112-118). Primary human skeletal myotubes were grown and differentiated in 24-well plates. Cells were treated with the indicated concentration of SBI-477 for 24 hours. Following compound treatment, cells were rinsed three times with PBS and then incubated in 125 μM [3H]-palmitic acid (60 Ci/mmol) bound to fatty acid free albumin containing 1 mM carnitine for 2 hours at 37° C. The cell medium was transferred to a tube containing cold 10% trichloroacetic acid (TCA). The tubes were centrifuged at 8,500×g for 10 minutes at 4° C. The supernatant was immediately removed, mixed with 6N NaOH, and applied to ion-exchange resin (DOWEX 1; Sigma-Aldrich). The eluate was collected, measured by liquid scintillation analyzer (PerkinElmer) and normalized to total protein amount. The amount of cell protein was measured by Micro BCA protein assay kit (Thermo Scientific).

H9c2 myotubes = experiment: Glycogen synthesis in H9c2 myotubes; assay type: cell-based, Rat
human skeletal myotubes = experiment: Glycogen synthesis assay in human skeletal myotubes; assay type: cell-based; conditions: 24 hours
Description: Human skeletal myotubes were incubated with or without SBI-477 and then treated with or without insulin (100 nM) for 30 minutes. Glycogen synthesis rates were then measured as described (Halse, et al., J Biol Chem. 1999; 274(2):776-780). Briefly, differentiated primary human skeletal myotubes were treated with SBI-477 as described in the glucose uptake assay. Following incubation with SBI-477, cells were serum starved in α-MEM for 1 hour. The medium was replaced with α-MEM supplemented with [14C]-D-glucose (1 μCi/mL) for three hours and then treated in the absence or presence of insulin (100 nM) for 30 minutes. After incubation, the cells were washed three times with ice-cold PBS and then lysed in 30% potassium hydroxide (KOH) containing 6 mg/mL glycogen. For glycogen precipitation, the samples were added to ice-cold 100% ethanol for 18 hours at 4° C. The samples were centrifuged at 8,500×g for 10 minutes at 4° C. and the supernatant was discarded. After one wash with 75% ethanol, the glycogen precipitate was dissolved in distilled water. [14C]-D-glucose incorporated to glycogen was counted by liquid scintillation analyzer (PerkinElmer) and normalized to total protein.

[3] = system: insulin receptor substrate 1 (IRS-1); experiment: Western blot of IRS-1 phosphorylation; assay type: cell-based, human; conditions: 24 hours
Description: (§2) FIGS. 3A, B, C, E and F show SBI-477 stimulation of glucose uptake and activates insulin signaling in the absence of insulin. Human skeletal myotubes were incubated with SBI-477 at the indicated concentration for 24 hours and then treated with or without insulin (100 nM) for 30 minutes. Glucose ([3H]-2-deoxyglucose, 2-DG) uptake (FIG. 3A) and glycogen synthesis rates (FIGS. 3B and 3C) were measured (n=5) as described in Methods. *p<0.05 vs. Vehicle, no insulin, †p<0.05 vs. Vehicle/insulin by two-way ANOVA with Tukey's post hoc test. (FIG. 3E) Western blot analysis of human myotubes treated with SBI-477 for 24 hours was performed to determine the effect on steps of the insulin signaling pathway using specific Akt and IRS-1 phosphorylation sites as endpoints. Insulin treatment (100 nM) for 30 minutes was used as positive control. (FIG. 3F) Quantitation of the western blot data in […] is shown (n=5). *p<0.05 or **p<0.01 vs. Vehicle by one-way ANOVA with Bonferroni post hoc test. The data represent mean±SD.
(§3) Cells were lysed in the RIPA buffer containing 1% NP-40, 5 mM Na4P2O7, 1 mM EDTA, 20 mM NaF, 2 mM Na3VO4, 1× cOmplete™ protease inhibitor (Roche) and 1 mM phenylmethylsulfonyl fluoride. […] Protein quantification was performed using FluorChemQ (Alpha Innotech) and normalized to […]-actin or total protein where indicated.

Akt = experiment: Western blot of Akt phosphorylation; assay type: cell-based, human; conditions: 24 hours
Description: as §2, §3

TXNIP [4] = experiment: TXNIP expression by quantitative RT-PCR in human myotubes; assay type: cell-based; conditions: 24 hours
Description: (§4) FIGS. 4A-C show downregulation of TXNIP and ARRDC4 expression by SBI-477. (FIG. 4A) TXNIP and ARRDC4 mRNA levels as determined by quantitative RT-PCR in human myotubes treated with SBI-477 (10 μM) or DGAT1 inhibitor (DGATi, […]) for 24 hours in the absence or presence of 100 μM oleate (n=4). Expression is shown relative to vehicle/BSA treatment. (FIG. 4B) TXNIP gene expression following exposure to a dose range of SBI-477 for 24 hours (n=4). (FIG. 4C) Left, Effect of SBI-477 on TXNIP protein levels as determined by western blot analysis by SBI-477. Right, Quantitation of the TXNIP western blot data is shown (n=5). *p<0.05 vs. Vehicle/BSA control, †p<0.05 vs. Vehicle/oleate by one-way ANOVA with Bonferroni post hoc test. The data are shown as mean±SD.
as §1

TXNIP [5] = experiment: TXNIP protein levels by western blot; assay type: cell-based; conditions: human myotubes
Description: as §4
as §3, with “fluoride. Whole cell lysates were subjected to SDS-PAGE and transferred to a nitrocellulose membrane. The blots were hybridized with specific antibodies and developed with enhanced chemiluminescence kit (Pierce).” for “fluoride.”

Structure (SMILES): COc1ccc(-c2csc(NC(=O)c3ccc(OCC(=O)N4CCOCC4)c(OC)c3)n2)cc1 [Cpd. 7, 3-methoxy-N-(4-(4-methoxyphenyl)thiazol-2-yl)-4-(2-morpholino-2-oxoethoxy)benzamide]
- Gene expression of CD36 [1]: no effect
- FAO rates [2]: increased by SBI-477 in a dose-dependent manner
- Insulin-stimulated glycogen synthesis compared to vehicle (H9c2 myotubes): increased insulin-stimulated glycogen synthesis
- Glycogen synthesis rates (human skeletal myotubes): enhanced by SBI-477 treatment in a dose dependent manner
- IRS-1 phosphorylation at serine sites 636/639 [3]: decreased
- Tyrosine phosphorylation of IRS-1 ([3]; absence of insulin): increased
- Phosphorylation of Akt (Akt): also increased
- TXNIP expression (TXNIP [4]): robust, dose-dependent downregulation
- TXNIP protein levels (TXNIP [5]): reduced by SBI-477 in dose-dependent manner
